# Columns and labels:
# [1] = target: Ribosomal protein S6 kinase alpha-5 (Homo sapiens) (UniProt O75582); conditions: at 10 µM
# [2] = target: T1, Serine/threonine-protein kinase ULK1 (Homo sapiens) (UniProt O75385); test: Selectivity interaction (ActivX KiNativ screen (kinase selectivity in THP-1 cell lysates)) EUB0000639a ULK1; assay type: subcellular; conditions: lysate, at 5 µM
# T1 sequence (whole entry): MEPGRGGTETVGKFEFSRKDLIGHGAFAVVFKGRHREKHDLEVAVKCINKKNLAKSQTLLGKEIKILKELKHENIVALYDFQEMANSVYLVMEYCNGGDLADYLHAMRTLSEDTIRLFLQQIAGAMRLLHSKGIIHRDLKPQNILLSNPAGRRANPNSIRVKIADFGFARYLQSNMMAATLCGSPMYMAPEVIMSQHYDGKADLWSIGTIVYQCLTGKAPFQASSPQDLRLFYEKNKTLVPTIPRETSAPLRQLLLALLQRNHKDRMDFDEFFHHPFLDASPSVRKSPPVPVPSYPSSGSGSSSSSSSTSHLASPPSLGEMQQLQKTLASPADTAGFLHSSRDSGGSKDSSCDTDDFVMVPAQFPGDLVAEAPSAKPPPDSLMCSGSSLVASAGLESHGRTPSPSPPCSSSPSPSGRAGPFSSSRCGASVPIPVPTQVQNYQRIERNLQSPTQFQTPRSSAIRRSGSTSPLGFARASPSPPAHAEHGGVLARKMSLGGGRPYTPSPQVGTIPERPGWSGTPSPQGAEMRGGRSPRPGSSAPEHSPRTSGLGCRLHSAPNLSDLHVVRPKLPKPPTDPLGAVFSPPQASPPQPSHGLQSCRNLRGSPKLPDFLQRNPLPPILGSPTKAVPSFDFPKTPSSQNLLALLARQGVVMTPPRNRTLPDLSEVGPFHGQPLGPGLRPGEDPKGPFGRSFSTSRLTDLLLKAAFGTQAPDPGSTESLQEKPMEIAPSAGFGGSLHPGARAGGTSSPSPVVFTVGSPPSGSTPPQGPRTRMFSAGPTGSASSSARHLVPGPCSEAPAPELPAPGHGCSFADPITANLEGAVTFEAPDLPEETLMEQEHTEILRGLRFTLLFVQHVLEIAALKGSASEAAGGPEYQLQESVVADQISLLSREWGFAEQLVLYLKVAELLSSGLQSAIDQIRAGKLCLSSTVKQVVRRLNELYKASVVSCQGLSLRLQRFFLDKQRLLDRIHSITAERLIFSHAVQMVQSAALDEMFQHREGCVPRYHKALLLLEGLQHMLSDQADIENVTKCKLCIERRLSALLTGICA
# [3] = target: T2, Serine/threonine-protein kinase LATS2 (Homo sapiens) (UniProt Q9NRM7); test: Selectivity interaction (Ambit KINOMEscan and KiNATiv profiling in Jurkat cells) EUB0000090b LATS2; assay type: cell-based; conditions: at 1 µM
# T2 sequence (whole entry): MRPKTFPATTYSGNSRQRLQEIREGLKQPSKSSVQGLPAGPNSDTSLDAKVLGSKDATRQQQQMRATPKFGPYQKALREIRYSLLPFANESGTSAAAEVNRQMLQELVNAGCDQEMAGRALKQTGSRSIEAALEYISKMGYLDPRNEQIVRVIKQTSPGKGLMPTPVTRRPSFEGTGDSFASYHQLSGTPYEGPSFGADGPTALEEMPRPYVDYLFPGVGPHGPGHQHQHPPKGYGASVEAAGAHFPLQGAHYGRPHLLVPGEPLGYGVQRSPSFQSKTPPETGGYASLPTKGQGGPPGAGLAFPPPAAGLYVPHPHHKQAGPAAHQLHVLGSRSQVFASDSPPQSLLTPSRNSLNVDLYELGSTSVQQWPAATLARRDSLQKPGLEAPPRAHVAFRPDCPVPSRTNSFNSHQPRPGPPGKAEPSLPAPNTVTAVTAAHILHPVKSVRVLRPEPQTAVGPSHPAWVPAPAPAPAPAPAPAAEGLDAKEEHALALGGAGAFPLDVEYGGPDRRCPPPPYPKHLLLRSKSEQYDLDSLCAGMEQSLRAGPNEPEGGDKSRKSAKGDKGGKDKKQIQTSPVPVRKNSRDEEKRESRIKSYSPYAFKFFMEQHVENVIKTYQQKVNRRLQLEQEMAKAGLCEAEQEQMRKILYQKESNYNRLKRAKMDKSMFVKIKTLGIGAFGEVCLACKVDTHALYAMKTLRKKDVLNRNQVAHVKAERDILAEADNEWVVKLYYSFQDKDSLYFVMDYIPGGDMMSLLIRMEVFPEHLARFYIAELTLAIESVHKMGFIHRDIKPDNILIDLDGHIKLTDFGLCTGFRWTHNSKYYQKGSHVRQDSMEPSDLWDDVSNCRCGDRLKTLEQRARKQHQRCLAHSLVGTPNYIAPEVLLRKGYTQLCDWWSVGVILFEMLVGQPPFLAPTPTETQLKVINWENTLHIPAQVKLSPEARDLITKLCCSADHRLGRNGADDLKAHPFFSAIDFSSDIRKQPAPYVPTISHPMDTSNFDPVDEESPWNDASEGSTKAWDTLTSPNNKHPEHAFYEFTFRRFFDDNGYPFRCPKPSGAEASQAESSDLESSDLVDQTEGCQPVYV
# [4] = target: Casein kinase I isoform delta (Homo sapiens, UniProt P48730); test: Selectivity interaction (KinomeScan (DiscoverX)) EUB0000618a CSNK1D; conditions: at 10 µM
# [5] = target: Serine/threonine-protein kinase WNK2 (Homo sapiens) (UniProt Q9Y3S1); test: Selectivity interaction (ActivX KiNativ screen (ex vivo kinase selectivity in human PBMCs)) EUB0001619a WNK2; assay type: cell-based; conditions: PBMC, at 1 µM
# [6] = target: Glutamate receptor ionotropic, NMDA 1 (Homo sapiens) (UniProt Q05586); test: Selectivity interaction (Panel of non-epigenetic targets (kinases, GPCRs, ion channels, and transporters, Eurofins) ) EUB0000271b GRIN1; conditions: at 1 µM
# [7] = target: Dual specificity protein kinase CLK3 (Homo sapiens, UniProt P49761); test: Selectivity interaction (ProQinase) EUB0000171b CLK3
# Sequence of Dual specificity protein kinase CLK3 (P49761 whole entry, looked up): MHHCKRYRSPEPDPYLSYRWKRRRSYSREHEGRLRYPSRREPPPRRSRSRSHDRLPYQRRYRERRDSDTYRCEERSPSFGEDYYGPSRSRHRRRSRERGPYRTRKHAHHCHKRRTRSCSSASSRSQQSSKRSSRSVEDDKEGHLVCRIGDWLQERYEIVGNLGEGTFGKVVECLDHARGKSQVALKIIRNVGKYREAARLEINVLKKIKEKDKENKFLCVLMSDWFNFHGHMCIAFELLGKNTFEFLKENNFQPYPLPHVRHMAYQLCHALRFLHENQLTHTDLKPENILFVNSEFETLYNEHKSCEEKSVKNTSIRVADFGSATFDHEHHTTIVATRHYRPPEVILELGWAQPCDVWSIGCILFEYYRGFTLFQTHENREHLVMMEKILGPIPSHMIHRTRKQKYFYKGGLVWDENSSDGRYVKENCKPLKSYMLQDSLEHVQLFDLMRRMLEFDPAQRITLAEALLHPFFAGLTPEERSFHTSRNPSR
# Sequence of Casein kinase I isoform delta (P48730 whole entry, looked up, canonical isoform): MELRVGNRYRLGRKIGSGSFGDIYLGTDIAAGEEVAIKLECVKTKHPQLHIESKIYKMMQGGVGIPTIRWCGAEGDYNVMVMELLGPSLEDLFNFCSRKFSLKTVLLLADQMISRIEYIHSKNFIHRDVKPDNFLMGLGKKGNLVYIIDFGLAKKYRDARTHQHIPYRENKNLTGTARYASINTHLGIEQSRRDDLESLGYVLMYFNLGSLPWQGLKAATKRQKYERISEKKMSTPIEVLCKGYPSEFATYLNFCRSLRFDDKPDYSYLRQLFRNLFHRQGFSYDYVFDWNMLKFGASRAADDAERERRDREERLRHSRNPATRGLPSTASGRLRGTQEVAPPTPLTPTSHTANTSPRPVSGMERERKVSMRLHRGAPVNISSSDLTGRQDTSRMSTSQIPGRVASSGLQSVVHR
# Sequence of Serine/threonine-protein kinase WNK2 (Homo sapiens) (Q9Y3S1 whole entry): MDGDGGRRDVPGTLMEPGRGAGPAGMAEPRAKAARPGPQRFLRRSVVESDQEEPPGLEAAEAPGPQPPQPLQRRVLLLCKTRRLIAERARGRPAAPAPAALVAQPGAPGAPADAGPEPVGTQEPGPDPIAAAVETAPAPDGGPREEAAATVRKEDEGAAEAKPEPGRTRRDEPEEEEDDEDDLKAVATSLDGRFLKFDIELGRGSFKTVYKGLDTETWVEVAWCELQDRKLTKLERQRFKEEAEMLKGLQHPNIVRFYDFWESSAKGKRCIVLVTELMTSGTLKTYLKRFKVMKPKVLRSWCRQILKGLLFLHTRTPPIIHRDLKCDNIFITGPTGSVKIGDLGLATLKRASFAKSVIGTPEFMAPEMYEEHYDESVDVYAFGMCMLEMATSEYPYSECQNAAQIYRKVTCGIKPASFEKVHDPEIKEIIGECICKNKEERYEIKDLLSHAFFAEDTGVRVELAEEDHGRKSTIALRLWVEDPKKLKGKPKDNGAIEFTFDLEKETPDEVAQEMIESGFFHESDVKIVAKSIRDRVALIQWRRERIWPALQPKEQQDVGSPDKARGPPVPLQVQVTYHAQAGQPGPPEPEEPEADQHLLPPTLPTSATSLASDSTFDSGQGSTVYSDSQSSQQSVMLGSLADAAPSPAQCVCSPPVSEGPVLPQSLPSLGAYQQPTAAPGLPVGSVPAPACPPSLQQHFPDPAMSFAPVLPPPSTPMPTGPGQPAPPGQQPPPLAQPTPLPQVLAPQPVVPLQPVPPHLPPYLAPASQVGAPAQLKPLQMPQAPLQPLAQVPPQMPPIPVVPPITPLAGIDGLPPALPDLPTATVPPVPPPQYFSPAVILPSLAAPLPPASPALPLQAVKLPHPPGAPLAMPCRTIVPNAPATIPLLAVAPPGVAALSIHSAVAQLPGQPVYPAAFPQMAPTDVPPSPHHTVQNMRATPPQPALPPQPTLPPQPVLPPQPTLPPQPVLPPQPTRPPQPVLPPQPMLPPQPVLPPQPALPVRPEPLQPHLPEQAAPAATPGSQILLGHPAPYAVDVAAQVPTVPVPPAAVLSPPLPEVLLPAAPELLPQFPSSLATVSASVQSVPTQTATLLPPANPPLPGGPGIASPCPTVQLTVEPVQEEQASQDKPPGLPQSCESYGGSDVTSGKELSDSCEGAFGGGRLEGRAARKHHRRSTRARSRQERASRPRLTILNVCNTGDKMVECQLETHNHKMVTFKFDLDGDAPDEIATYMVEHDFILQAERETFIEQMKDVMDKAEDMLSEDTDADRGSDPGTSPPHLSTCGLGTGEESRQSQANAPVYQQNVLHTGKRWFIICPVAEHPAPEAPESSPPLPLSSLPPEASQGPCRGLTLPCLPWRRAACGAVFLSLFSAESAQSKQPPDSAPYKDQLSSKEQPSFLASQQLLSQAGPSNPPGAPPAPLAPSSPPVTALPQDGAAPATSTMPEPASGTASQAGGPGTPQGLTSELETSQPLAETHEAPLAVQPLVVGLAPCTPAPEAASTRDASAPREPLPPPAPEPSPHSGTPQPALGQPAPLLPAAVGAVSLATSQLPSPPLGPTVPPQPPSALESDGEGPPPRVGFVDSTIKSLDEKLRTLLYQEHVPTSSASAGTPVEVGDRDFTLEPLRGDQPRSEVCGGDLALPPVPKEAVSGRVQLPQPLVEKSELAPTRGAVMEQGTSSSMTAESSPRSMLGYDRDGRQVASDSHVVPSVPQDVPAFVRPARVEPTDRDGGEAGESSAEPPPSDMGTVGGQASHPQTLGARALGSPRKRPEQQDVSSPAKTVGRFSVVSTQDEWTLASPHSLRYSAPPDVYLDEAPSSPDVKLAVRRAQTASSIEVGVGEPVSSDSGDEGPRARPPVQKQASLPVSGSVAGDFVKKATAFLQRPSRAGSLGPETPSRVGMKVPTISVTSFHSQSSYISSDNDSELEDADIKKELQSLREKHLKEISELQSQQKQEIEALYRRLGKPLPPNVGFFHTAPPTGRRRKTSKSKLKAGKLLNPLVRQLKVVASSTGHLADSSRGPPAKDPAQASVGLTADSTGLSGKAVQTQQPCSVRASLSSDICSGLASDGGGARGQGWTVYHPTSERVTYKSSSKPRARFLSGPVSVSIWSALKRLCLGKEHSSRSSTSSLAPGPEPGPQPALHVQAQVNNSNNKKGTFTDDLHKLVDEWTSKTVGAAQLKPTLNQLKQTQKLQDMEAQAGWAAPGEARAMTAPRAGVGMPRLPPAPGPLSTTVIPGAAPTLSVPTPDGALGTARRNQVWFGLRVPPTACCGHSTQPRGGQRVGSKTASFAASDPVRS
# Sequence of Ribosomal protein S6 kinase alpha-5 (Homo sapiens) (O75582 whole entry, looked up): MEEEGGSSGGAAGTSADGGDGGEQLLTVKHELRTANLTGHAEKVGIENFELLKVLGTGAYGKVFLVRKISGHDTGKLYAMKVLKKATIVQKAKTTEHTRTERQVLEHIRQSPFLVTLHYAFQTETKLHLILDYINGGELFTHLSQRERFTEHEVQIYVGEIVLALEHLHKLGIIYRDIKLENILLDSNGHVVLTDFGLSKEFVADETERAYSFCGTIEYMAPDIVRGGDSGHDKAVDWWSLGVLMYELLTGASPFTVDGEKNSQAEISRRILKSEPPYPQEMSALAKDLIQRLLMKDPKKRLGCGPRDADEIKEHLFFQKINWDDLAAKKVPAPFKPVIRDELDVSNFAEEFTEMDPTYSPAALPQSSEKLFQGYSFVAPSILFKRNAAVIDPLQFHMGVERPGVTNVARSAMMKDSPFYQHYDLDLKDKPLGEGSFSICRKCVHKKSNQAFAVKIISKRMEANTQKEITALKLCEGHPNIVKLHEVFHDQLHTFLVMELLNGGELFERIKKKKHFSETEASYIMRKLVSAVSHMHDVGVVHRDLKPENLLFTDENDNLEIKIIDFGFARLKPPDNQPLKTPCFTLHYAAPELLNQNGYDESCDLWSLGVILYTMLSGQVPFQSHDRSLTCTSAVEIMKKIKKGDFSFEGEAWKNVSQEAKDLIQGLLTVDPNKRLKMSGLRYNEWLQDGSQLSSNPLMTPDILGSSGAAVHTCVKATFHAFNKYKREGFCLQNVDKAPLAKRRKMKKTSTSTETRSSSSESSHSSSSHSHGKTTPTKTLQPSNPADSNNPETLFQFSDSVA
smiles,measurement,setting,value
CCN(CC)CCCCNc1ncc2cc(-c3cc(OC)cc(OC)c3)c(NC(=O)NC(C)(C)C)nc2n1,% of control,[1],100%
CC[C@@H]1[C@H](F)C(=O)N[C@@H]1COc1nccc2cc(C(N)=O)c(OC)cc12 [ZIMLOVISERTIB],% of inhibition,[2],-74.1%
CN(C)C/C=C/C(=O)Nc1ccc(C(=O)N2CCCC(Nc3ncc(Cl)c(-c4c[nH]c5ccccc45)n3)C2)cc1 (stereo not drawn),% of control,[3],100%
O[C@H]1CC[C@H](Nc2ncc3nc(Nc4c(F)cc(F)cc4F)n([C@H]4CCOC4)c3n2)CC1,% of control,[4],83%
N#Cc1cccc(-c2c[nH]c3ncnc(N4CCOCC4)c23)c1,% of inhibition,[5],-6%
Cc1cc(C)cc([C@@H]2c3cc(C)ccc3NC(=O)CN2C(=O)c2ccc(Br)s2)c1,% of inhibition,[6],1%
C=CC(=O)Nc1cccc(C(=O)Nc2ccc(Nc3cc(-c4[nH]c(SC)nc4C)ccn3)cc2)c1,% of control,[7]; at 1 µM,98%
same,% of control,[7]; at 5 µM,89%
